Source: the supplement of paper PMC13380429
± gives the standard deviation of the averaged measurements.

Assays:
Conditions in all cases: 72 h
[1] = tested on: Vero E6; assay: cell viability relative to DMSO; higher = less toxic
[2] = tested on: HepG2; assay: as above
[3] = tested on: Calu-3; assay: as above
[4] = tested on: U2OS; assay: as above
[5] = tested on: Caco-2; assay: as above
[6] = tested on: Vero E6; assay: relative viability EC50 (midpoint between 100% and the lowest measured viability); higher = less toxic
[7] = tested on: HepG2; assay: as above
[8] = tested on: Calu-3; assay: as above
[9] = tested on: U2OS; assay: as above
[10] = tested on: Caco-2; assay: as above
[11] = tested on: Vero E6; assay: drug sensitivity score (DSS) for viability; higher = more toxic; extreme values may be limits of the assay
[12] = tested on: HepG2; assay: as above
[13] = tested on: Calu-3; assay: as above
[14] = tested on: U2OS; assay: as above
[15] = tested on: Caco-2; assay: as above

SMILES	cell viability ([1]; 1 nM) [%]	cell viability ([1]; 10 nM) [%]	cell viability ([1]; 100 nM) [%]	cell viability ([1]; 1000 nM) [%]	cell viability ([1]; 10000 nM) [%]	cell viability ([2]; 1 nM) [%]	cell viability ([2]; 10 nM) [%]	cell viability ([2]; 100 nM) [%]	cell viability ([2]; 1000 nM) [%]	cell viability ([2]; 10000 nM) [%]	cell viability ([3]; 1 nM) [%]	cell viability ([3]; 10 nM) [%]	cell viability ([3]; 100 nM) [%]	cell viability ([3]; 1000 nM) [%]	cell viability ([3]; 10000 nM) [%]	cell viability ([4]; 1 nM) [%]	cell viability ([4]; 10 nM) [%]	cell viability ([4]; 100 nM) [%]	cell viability ([4]; 1000 nM) [%]	cell viability ([4]; 10000 nM) [%]	cell viability ([5]; 1 nM) [%]	cell viability ([5]; 10 nM) [%]	cell viability ([5]; 100 nM) [%]	cell viability ([5]; 1000 nM) [%]	cell viability ([5]; 10000 nM) [%]	relative viability EC50 [6] [µM]	relative viability EC50 [7] [µM]	relative viability EC50 [8] [µM]	relative viability EC50 [9] [µM]	relative viability EC50 [10] [µM]	drug sensitivity score [11]	drug sensitivity score [12]	drug sensitivity score [13]	drug sensitivity score [14]	drug sensitivity score [15]
CC1(C)C(=O)N(CCN2CCC(C(=O)c3ccc(F)cc3)CC2)c2ccccc21	96.1	102	91.8	94.2	106	95.3	102	90.8	97	87.8	99.5	91.4	90.6	98.4	89.8	97.7	96.3	98.2	95.9	97.8	88.5	102	104	97.2	91.6	> 10	> 10	> 10	> 10	> 10	0	0	0	0	0
CC1=C(/C=C/C(=C/C=C/C(C)=C/C(=O)O)c2ccc(C)cc2)C(C)(C)CCC1	99.1	95.2	101	97.2	108	106	103	98.2	94.2	98.4	94.6	106	112	102	99.3	–	–	–	–	–	90.9	94.2	95.4	98.4	97.1	> 10	> 10	> 10	–	> 10	0	0	0	–	0
CCCCCCNC(=O)Nc1ccc(S(=O)(=O)Nc2ccc(CCNC[C@H](O)COc3ccc(O)cc3)cc2)cc1	92.7	95.8	91	96.2	110	95.6	110	92.1	103	107	105	96.8	93.5	102	88.3	106	96.6	101	99.9	103	102	82.7	102	102	104	> 10	> 10	> 10	> 10	> 10	0	0	0	0	0
CCS(=O)(=O)N1CCC[C@@H]2CN3CCc4cc(OC)ccc4[C@@H]3C[C@@H]21	96.3	103	97.1	93.8	105	99.9	113	109	92.2	102	103	90.4	109	101	103	99.5	103	108	108	106	94.7	94.2	95	104	91.7	> 10	> 10	> 10	> 10	> 10	0	0	0	0	0
CN(C(=O)CN1C(=O)COc2cc(Cl)c(Cl)cc21)[C@@H](CN1CCCC1)c1ccc(-c2cccc(C(N)=O)c2)cc1	96.9	97	94.9	97.1	2.8	95	104	91.5	99	10.5	109	111	102	114	7	100	97.1	104	94.1	3.5	97.9	99	101	97.1	7.2	2.94	3.09	3.79	2.68	2.94	5.8	5.1	4.3	6.2	5.5
COC1(C2=NCCN2)COc2ccccc2O1 (stereo not given)	103	96	93.3	100	98.2	109	109	91.2	107	99.3	100	103	96	93	94.6	96.2	95.1	103	97.9	101	99.5	91.5	101	89.7	91.4	> 10	> 10	> 10	> 10	> 10	0	0	0	0	0
COc1ccc2cccc(N3CCN(CCNC(=O)c4ccc(F)cc4)CC3)c2c1	103	104	97.5	94	89.3	99.2	98.9	97.4	95.4	89.5	96.6	105	104	106	83	95.7	103	92.7	96.4	90.4	98.3	95.3	98.3	90.6	86.2	> 10	> 10	> 10	> 10	> 10	0	0	0.2	0	0.3
COc1cccc(Nc2ncnn3ccc(CN4CC[C@@H](N)[C@H](O)C4)c23)c1	100	89.4	65.7	51.4	14.8	105	102	102	99	87.9	103	94.4	46.5	23.7	9.1	96.2	96.5	93.2	92.6	55.7	89.2	91	81.2	76.1	48.6	0.292	> 10	0.0837	–	0.335	14.4	0.1	21.9	3.5	7.5
COc1ccccc1N1CCN(CCCCNC(=O)c2ccc(-c3ccc(C(C)=O)cc3)cc2)CC1	104	99.5	101	102	95.5	104	104	96.4	94.6	83.8	101	92.6	110	102	96.5	101	95.8	102	98.4	101	93.7	94.5	119	106	110	> 10	> 10	> 10	> 10	> 10	0	0.5	0	0	0
C[C@@H](NCc1cc(Br)cc2nc(O)c(O)nc12)P(=O)(O)O	105	105	103	98.8	96.1	94.2	94	99.4	93.3	89.2	103	86	81	110	102	107	97.2	96.6	92.5	98.4	97	100	109	94.4	97.5	> 10	> 10	> 10	> 10	> 10	0	0	0	0	0
Cc1c(C)c(NCC(=O)N(C)C2CCN(Cc3ccc(C(N)=O)cc3)CC2)c(C)c(C)c1N	96.1	97.7	92.4	101	105	97.5	100	101	102	96.7	105	91	101	104	103	100	97	102	99.2	98.1	98.7	99.6	92.7	96.6	112	> 10	> 10	> 10	> 10	> 10	0	0	0	0	0
Cc1ccc(-n2sc(=O)n(Cc3ccc(F)cc3)c2=O)cc1	96.4	97.7	97.1	99.1	93.5	89.2	107	95.9	96.1	96.1	104	83.1	110	98.9	94.3	97.9	98.7	99.6	96.1	108	99.1	97.7	98.4	100	95.9	> 10	> 10	> 10	> 10	> 10	0	0	0	0	0
Nc1ncc(Cc2ccc(Br)cc2)s1	99.9	94	100	92.2	107	98	88.6	115	96.3	99.9	95.6	91.8	103	94.3	119	93.5	102	94.9	101	102	97.3	95.1	85.2	99.3	96.7	> 10	> 10	> 10	> 10	> 10	0	0	0	0	0
O=C(NCCCN1CCCCCC1)C(c1ccccc1)C1CCCCC1 (stereo not given)	95.8	96.1	96.5	99.6	94.9	107	107	100	89	84.7	111	94.1	102	104	98.8	104	101	101	106	95.7	101	101	105	107	95	> 10	> 10	> 10	> 10	> 10	0	1	0	0	0
O=C(Nc1ccc(Cl)nc1)c1ccc(Cl)cc1	95.4	98.7	95.9	94.1	100	97.5	109	106	103	110	94.9	90.6	96.6	94.2	102	95.6	94.3	101	93.2	95.7	103	90.2	97.8	98.8	102	> 10	> 10	> 10	> 10	> 10	0	0	0	0	0
O=C(Nc1ccccc1)N[C@H]1C[C@H](C(=O)O)Nc2cc(Cl)cc(Cl)c21	106	100	100	96.7	99.8	96.4	103	96.3	84.6	104	105	89.8	108	95.8	97.1	98	104	103	105	100	98.1	104	104	104	92.5	> 10	> 10	> 10	> 10	> 10	0	0	0	0	0
OC(CCCN1CCN(c2ncc(F)cn2)CC1)c1ccc(F)cc1 (stereo not given)	101	98.1	94.9	99	95.4	95.8	100	98.3	96	97.5	107	99.7	102	104	94.7	–	–	–	–	–	98.4	99.1	101	94.2	95.7	> 10	> 10	> 10	–	> 10	0	0	0	–	0
O=C1CS[C@@H](c2ccccc2Cl)c2cc(Cl)ccc2N1 (racemic)	96.6	97.6	99.1	97.8	104	100	98.7	96.4	110	102	94.5	100	96.7	100	105	106	104	94.4	101	102	92.3	101	92.2	98.6	90.1	> 10	> 10	> 10	> 10	> 10	0	0	0	0	0
C[C@@H]([C@H](O)c1ccc(O)cc1)N1CCC(Cc2ccccc2)CC1 (racemic) [ifenprodil]	101	103	102	98.8	97.6	103	99.5	104	92.8	88.2	99.4	96.5	92	91.8	84.1	103	101	99.9	102	98.5	96.8	101	96.1	98	89.8	> 10	> 10	> 10	> 10	> 10	0	0.3	0.6	0	0
Cn1cc(-c2ccc(S(=O)(=O)n3ccc(/C=C/C(=O)Nc4ccccc4N)c3)cc2)cn1 [4SC-202]	96.7	104	91	69.9	30.8	88.5	102	92.7	52.4	25.8	91.7	86	78.7	45.9	23.8	95.8	96.6	102	72.5	13.3	85.2	96.9	102	73.4	42	1.12	0.623	0.26	1.36	1.07	7.2	10.1	13.3	8.8	6.6
COc1cc2c(CCNC(C)=O)c[nH]c2cc1Cl [6-chloromelatonin]	97.8	93.8	96.2	89.9	102	107	97.2	94.7	90.5	98.9	99.5	96.5	98.9	105	98.3	100	101	101	101	99.3	96	98.3	92.7	98.1	91	> 10	> 10	> 10	> 10	> 10	0	0	0	0	0
C#C[C@]1(O)CC[C@H]2[C@@H]3CCC4=CC(=O)CC[C@@H]4[C@H]3CC[C@@]21C [Norethindrone (Norethisterone)]	98.4	97.4	94.6	93.6	109	103	89.5	94.1	100	114	103	105	93.9	110	99.9	–	–	–	–	–	94	103	97	101	116	> 10	> 10	> 10	–	> 10	0	0	0	–	0
C[C@]12N[C@H](Cc3ccccc31)c1ccccc12 [dizocilpine-(-)]	95.8	97.2	101	93	97	99.4 ± 0.28	97.7 ± 4.1	102 ± 9.9	95 ± 4.2	73.8 ± 28	97.8 ± 11	96.6 ± 3	101 ± 7.7	96.8 ± 6.1	98.5 ± 11	98.1 ± 5.1	104 ± 3.2	97.4 ± 1.7	100.7 ± 0.92	95.4 ± 1.4	98.7 ± 0.42	94.5 ± 1.2	97.7 ± 1.8	102 ± 6.2	99.5 ± 5	> 10	–	> 10	> 10	> 10	0	1.85 ± 2.6	0	0	0
CCOC(=O)c1ccc(OC(=O)CCCCCNC(=N)N)cc1 [gabexate]	101	104	98	98.4	100	97.1	115	96.9	95.6	103	88.1	95.9	84.8	86.9	87.1	–	–	–	–	–	94.2	95.6	99.2	95.2	89.4	> 10	> 10	> 10	–	> 10	0	0	1.4	–	0
